From patent US7781423B2, “Compounds to promote regeneration of bone marrow” (priority 2007, dated 2010) come the findings set out here.

The structures appear in SMILES notation.

The test system of series [1] is lethally irradiated mice that received bone marrow transplantation. As to the kind of experiment: Blood profile after bone marrow transplantation following lethal irradiation. Type of series: in vivo, C57B1 mice. The settings on record: for Platelets / RBC / WBC: CCompound1 4.5 mg per kg i.p. daily, day -3 to day +3. The protocol: Twelve week old female C57B1 mice were used for the experiments. Each drug was administered intraperitoneally once a day for 5 consecutive days. In the second, third, fourth and fifth groups, mice were administered 120 mg/kg of cyclophosphamide (CP). In a third group, mice were also administered 4.5 mg/kg of CCompound1. In a fourth group, mice were also administered 4.5 mg/kg of CCompound3. In a fifth group, mice were also administered 2.0 mg/kg of CCompound26. In the first group, mice received no treatment. Each group included 5 animals. After 3 hours of the last treatments (on day 5), blood samples were collected from the ocular venous plexus of ether-anesthetized mice by retro-orbital venipuncture in heparanized tubes. Complete cell counts (RBC, red blood cell; WBC, white blood cell; PTL, platelet) were determined with a Sysmex F-800 hematology analyzer (To a Medical Electronics Co. LTD, Kobe, Japan). All data shown in Table 2 are the average of 5 independent determinations.
In this experiment the goal was to determine if CCompound1 can enhance expansion of transplanted bone marrow cells infused after applying a lethal dose of whole body irradiation (which reduces the number of bone marrow cells by more than 90%). C57B1 female mice (10-14 weeks old) were subjected to 900 cGy whole body irradiation from a ^137Cesium source which was followed within 6 hours by infusion of one million donor nucleated bone marrow cells by tail vein injection. Starting 3 days before irradiation, animals received daily 4.5 mg per kg of CCompound1 via intraperitoneal injection; this treatment also was provided on day 0 and once daily for the subsequent 3 days after irradiation. In another group, mice were injected only with physiological saline.
Bone marrow cells were collected on day 0 from non-irradiated animals as well as on days 6, 14, 28 and 42 after irradiation and bone marrow transplantation. Nucleated bone marrow cells were quantified and CFU-GM assay was performed as described in Example 3 while blood profiling was performed as described in Example 1. For each group, on the indicated days bone marrow and blood samples were collected from 3 animals. Each value presented in Table 5 and Table 6 represents the mean±st. dev. of 3 samples (derived from 3 animals).

The nature of series [2]: Solubility in water.
The subject of series [3] is human bone marrow-derived mesenchymal stem cells. Kind of series: Survival of mesenchymal stem cells in the absence of serum (viable cell number). It counts as cell-based. The settings on record: serum-free medium. As to the method:
Bone marrow aspirates were taken from normal adult donors after an informed consent was signed. Bone marrow mesenchymal stem cells were prepared by a widely used technique as described earlier by others. Pittenger, M. F., Mackay, A. M., Beck, S. C., Jaiswal, R. K., Douglas, R., Mosca, J. D., Moorman, M. A., Simonetti, D. W., Craig, S. and Marshak, D. R., “Multilineage potential of adult human mesenchymal stem cells,” Science, 284, 143-147 (1999). […] When cells grew to about 80% confluence, they were suspended and harvested by incubating with a ready-made solution containing 0.25% trypsin and 1 mM EDTA (Sigma-Aldrich, St. Louis, Mo.) for 5 minutes at 37° C.; this cell suspension is designated as passage 1. […]
The total numbers of nucleated and viable cells were determined with a hemocytometer, using Turck's solution and trypan blue stain, respectively. […]
In the experiments reported in Table 7 and Table 8, human bone marrow-derived mesenchymal stem cells were split at 1:3 and then incubated for 24 hours in 10% fetal calf serum-containing medium to about 30-35% confluence. […] The data are expressed as mean values±std. dev. of 3 determinations.

The mark [4] stands for this setting: after bone marrow transplantation.
The mark [5] stands for this setting: day 6 after 900 cGy irradiation and bone marrow transplantation.
The mark [6] stands for this setting: day 14 after 900 cGy irradiation and bone marrow transplantation.
Where [7] appears, read: day 28 after 900 cGy irradiation and bone marrow transplantation.
[8] abbreviates: day 42 after 900 cGy irradiation and bone marrow transplantation.

`Cc1c(OCC(O)C[N+](C)(C)C)cc2c(=O)c3ccccc3sc2c1C.[Cl-]` (stereo not drawn) [CCcompound1, [3-(3,4-Dimethyl-9-oxo-9H-thioxanthen-2-yloxy)-2-hydroxypropyl]trimethyl-ammonium chloride]: in series [1] (setting [4]), the “time to recover platelet count similar to about 100,000 per 1 μl from transplanted bone marrow stem cells” value was “less than 6 days”. Further, in series [1] (setting [4]), the “time to recover white blood cell count similar to 2,500 per 1 μl from transplanted bone marrow stem cells” value was 9 to 11 days. In addition, the “time to about 50% recovery of white blood cells” value in series [1] (after lethal irradiation and bone marrow transplantation) was “about 14 days”. The Platelets is on record as 243 ± 19 ×10^3/mm^3 in series [1] (setting [5]), 438 ± 112 ×10^3/mm^3 in series [1] (setting [6]), 716 ± 138 ×10^3/mm^3 in series [1] (setting [7]) and 776 ± 112 ×10^3/mm^3 in series [1] (setting [8]). Also, the RBC in series [1] (setting [5]) is recorded as 4.8 ± 1.2 ×10^6/mm^3; in series [1] (setting [6]), 9.1 ± 1.1 ×10^6/mm^3; in series [1] (setting [7]), 10.9 ± 1.3 ×10^6/mm^3; in series [1] (setting [8]), 11.0 ± 0.7 ×10^6/mm^3. Moreover, the WBC is 1.6 ± 0.3 ×10^3/mm^3 in series [1] (setting [5]), 3.3 ± 0.4 ×10^3/mm^3 in series [1] (setting [6]), 5.2 ± 0.8 ×10^3/mm^3 in series [1] (setting [7]) and 6.6 ± 0.4 ×10^3/mm^3 in series [1] (setting [8]). Besides, the solubility in water result in series [2] is given as “soluble in water”. In addition, the “effect on cell numbers (survival)” value in series [3] (10 μM) was “did not reach statistical significance”; in series [3] (50 μM), “no effect”.
